From PMC11500415, “Chemical inhibition of stomatal differentiation by perturbation of the master-regulatory bHLH heterodimer via an ACT-Like domain” (Nature Communications, 2024)

How the values were obtained:
Test in all cases: Ratiometric BiFC in N. benthamiana leaves
Assay type in all cases: cell-based
SCRM2-FAMA heterodimer = target: T1, SCRM2-FAMA heterodimer (Arabidopsis thaliana, UniProt Q56YJ8); settings: 100 µM
T1 construct: heterodimerization of SCRM with full-length SPCH, MUTE, or FAMA in the context of the plant cells; we performed rBiFC assays using full-length SCRM2; nYFP (N terminus of EYFP, 174 amino acids); cYFP (C terminus of EYFP, 64 amino acids); expressed in transfected cells; host or cells: Nicotiana benthamiana leaves (Agrobacterium infiltration)
Description: (§1) For ratiometric BiFC assays, the cDNAs of SPCH, MUTE, and FAMA were cloned into the 35S CaMV promoter-driven destination vector pSPYNE, which contains the N terminus of the EYFP protein (nYFP-174 amino acids), while the cDNA of SCRM and SCRM2 was inserted into pSPYCE, which contains the C terminus of the EYFP protein (cYFP-64 amino acids) (see Supplementary Table 5 for detailed information of the constructs). The constructs were then transformed into Agrobacterium tumefaciens strain GV3101. The Agrobacterium was resuspended in infiltration buffer (10 mM MgCl2, 10 mM 2-(N-morpholino)ethanesulfonic acid [pH 5.6], and 150 µM acetosyringone). Bacterial culture densities were adjusted to a final optical density (OD600) of 1.0, and the cell suspensions were incubated at room temperature for 4 hours prior to infiltration. Equal volumes of cultures carrying the corresponding complementary pair of BiFC constructs (YFPn and YFPc), along with CaMV35S::Histone H2B-mScarlet-I3 and the silencing suppressor plasmid p19 (a gift from Dr. Sir David Baulcombe) were mixed and then co-infiltrated into 4-week-old N. benthamiana leaves. The infiltrated N. benthamiana leaves were incubated at 25 °C for 2 days. Subsequently, leaf discs were cut out and cultured in mock or in liquid 1/2 MS media in mock (DMSO) or 100 µM Stomidazolone for 1 day. Confocal imaging of N. benthamiana leaves was performed using a Leica SP8 confocal microscope using a 20X objective lens (Leica Microsystems), simultaneously capturing YFP (excitation at 518 nm and emission at 530 nm) and mScarlet-I3 (excitation at 569 nm and emission at 600 nm) differential interference contrast channels.

SCRM-FAMA heterodimer = target: T2, SCRM-FAMA heterodimer (Arabidopsis thaliana, UniProt Q56YJ8); settings: 100 μM, 1 day
T2 construct: heterodimerization of SCRM with full-length SPCH, MUTE, or FAMA in the context of the plant cells; combinations of split YFP constructs fused to the full-length stomatal bHLH proteins; nYFP (N terminus of EYFP, 174 amino acids); cYFP (C terminus of EYFP, 64 amino acids); expressed in transfected cells; host or cells: Nicotiana benthamiana leaves (Agrobacterium infiltration)
T2 sequence (Q56YJ8 1-414): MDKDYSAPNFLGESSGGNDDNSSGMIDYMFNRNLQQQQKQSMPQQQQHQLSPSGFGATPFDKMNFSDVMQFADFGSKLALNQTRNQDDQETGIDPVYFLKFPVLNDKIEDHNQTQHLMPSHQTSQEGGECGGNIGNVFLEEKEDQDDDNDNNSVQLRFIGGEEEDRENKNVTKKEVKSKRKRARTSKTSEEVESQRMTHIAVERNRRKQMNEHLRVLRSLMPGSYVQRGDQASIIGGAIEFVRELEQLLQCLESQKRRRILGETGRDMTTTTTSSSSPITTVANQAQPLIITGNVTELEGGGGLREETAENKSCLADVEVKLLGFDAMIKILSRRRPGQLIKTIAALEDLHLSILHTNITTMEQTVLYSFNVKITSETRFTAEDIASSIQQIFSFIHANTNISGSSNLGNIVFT
Description: as §1

SCRM-MUTE heterodimer = target: T3, SCRM-MUTE heterodimer (Arabidopsis thaliana, UniProt Q9M8K6); settings: 100 μM, 1 day
T3 construct: expressed in transfected cells; host or cells: yeast strain AH109
T3 sequence (Q9M8K6 1-202): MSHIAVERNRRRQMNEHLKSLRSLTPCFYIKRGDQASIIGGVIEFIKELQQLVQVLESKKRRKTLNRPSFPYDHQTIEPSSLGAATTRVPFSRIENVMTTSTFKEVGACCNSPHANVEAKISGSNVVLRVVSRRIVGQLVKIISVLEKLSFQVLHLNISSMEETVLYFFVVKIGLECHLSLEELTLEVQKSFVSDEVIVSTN
Description: as §1

SCRM2-MUTE heterodimer = target: T4, SCRM2-MUTE heterodimer (Arabidopsis thaliana, UniProt Q9M8K6); settings: 100 µM
T4 construct: heterodimerization of SCRM with full-length SPCH, MUTE, or FAMA in the context of the plant cells; nYFP (N terminus of EYFP, 174 amino acids); expressed in transfected cells; host or cells: Nicotiana benthamiana leaves (Agrobacterium infiltration)
Description: as §1

## O=C1C(c2ccccc2)=NC(NS(=O)(=O)c2ccccc2)(c2ccccc2)N1S(=O)(=O)c1ccccc1 (stereo not shown) [Stomidazolone]
SCRM2-FAMA heterodimer
  effect on heterodimerization (in words): abolished
SCRM-FAMA heterodimer
  effect on heterodimerization, YFP/RFP signal ratio (in words): not affecting
SCRM-MUTE heterodimer
  effect on heterodimerization, YFP/RFP signal ratio (in words): severely perturbs
SCRM2-MUTE heterodimer
  effect on heterodimerization (in words): abolished
